Test [1] deals with monolayer HiPSC-AM sheets. Put plainly: Optical mapping of monolayer HiPSC-AM sheets, adrenergic stress induced CaT alternans. The format is cell-based, human. The conditions noted are these: 100 nM ISO; regular pacing at 0.5-1 Hz. The procedure: Optical mapping experiments were carried out after the cells started to contract. The responsiveness of the derived CMs in the experimental group to β and a adrenergic receptor agonists and antagonists was measured. Intracellular calcium transients were analysed using a 128×128 EMCCD camera (Photometrics, Tucson, USA). The derived CMs were pre-loaded with 1 μM Fluo4 (Molecular Probes by Life Technologies) dissolved in DMSO for 15 min at 37° C. in CMM. Calcium transients of the derived CMs were first recorded without the addition of the drugs as control. Recordings were then taken at 0 min, 5 min, 10 min and 15 min after 100 nM Isoprenaline (ISO) treatment. Using the same method, the responsiveness of the derived CMs in the experimental group to 10 μM Phenylephrine (PE) treatment was tested. In adrenergic receptor antagonist tests, the cells were pre-treated with 600 nM CGP20712A (CGP) (Sigma) dissolved in Fluo4 loading solution prior to 100 nM ISO treatment. Recordings were taken in the same way as described above. Similarly, the cells were pre-treated with 1 μM Prazosin dissolved in Fluo4 loading solution before a treatment of 10 μM PE. […] Raw traces were analyzed and baseline corrections were conducted using Clampfit. Calcium transient amplitude change was calculated based on averaged trace. […]

Test [2] deals with hiPSC derived atrial cardiomyocytes. Put plainly: Ca2+ transient imaging (Fluo4 optical mapping) with adrenergic agonists and antagonists. The format is cell-based, human. The procedure: (§1) Optical mapping experiments were carried out after the cells started to contract. The responsiveness of the derived CMs in the experimental group to β and α adrenergic receptor agonists and antagonists was measured. Intracellular calcium transients were analysed using a 128×128 EMCCD camera (Photometrics, Tucson, USA). The derived CMs were pre-loaded with 1 μM Fluo4 (Molecular Probes by Life Technologies) dissolved in DMSO for 15 min at 37° C. in CMM. Calcium transients of the derived CMs were first recorded without the addition of the drugs as control. Recordings were then taken at 0 min, 5 min, 10 min and 15 min after 100 nM Isoprenaline (ISO) treatment. Using the same method, the responsiveness of the derived CMs in the experimental group to 10 μM Phenylephrine (PE) treatment was tested. […] Recordings were taken in the same way as described above. Similarly, the cells were pre-treated with 1 μM Prazosin dissolved in Fluo4 loading solution before a treatment of 10 μM PE. Metamorph was used to take the recordings, and 4000 or 8000 frames were taken for each recording, with a frame rate of 100 Hz (for 4000 frames) or 333.33 Hz (for 8000 frames). Regions of interest were selected using ImageJ. Raw traces were analysed and baseline corrections were conducted using Clampfit. Calcium transient amplitude change was calculated based on averaged trace. Part of the analysis was performed using custom MATLAB algorithms. To calculate beat-to-beat CaT50, the mean signal was segmented into individual beats. Representative regions were defined as two 16 by 16 pixel regions.
as §1, with “β and a adrenergic receptor” for “β and α adrenergic receptor”, “traces were analyzed and baseline” for “traces were analysed and baseline”, “was performed by the collaborator group from University of Birmingham using custom” for “was performed using custom”
We also tested whether hiPSC derived atrial cardiomyocytes responded to adrenoceptor stimulation by a or p adrenoceptor agonists. The presence of a functional al-adrenoceptor signaling pathway was first tested by exposure of hiPSC derived atrial cardiomyocytes to phenylephrine, which in adult atrial CMs increases the amplitude of Ca^2+ transients. Phenylephrine is an al-adrenoceptor agonist coupled to Gq and the mechanism of increase in Ca^2+ transient amplitude is associated with an increase cellular IP3 levels. Atrial cardiomyocytes from Days 25-30 post initiation of differentiating human iPSC derived atrial cardiomyocytes were used to assess the effect of phenylephrine on Ca^2+ transient amplitude. […]

Structures are written as SMILES.

In the case of `CC(C)NCC(O)c1ccc(O)c(O)c1` (centres unmarked) [isoproterenol], the CaT alternans result in test [1] is reported as “occurred”. Moreover, the “increase in the amplitude of Ca2+ transients” value in test [2] (isoproterenol 100 nM, n=5 batch of cells) stood at 26±5%. Further, the “effect on the amplitude of Ca2+ transients when CGP20712A was present” value in test [2] (isoproterenol with CGP20712A (300 nM) present, n=5 batch of cells) was “without effect”.
Turning to `CNC[C@H](O)c1cccc(O)c1` [phenylephrine], in test [2] (10 μM phenylephrine), the “effect on Ca2+ transient decay time” value is “no effect” and the “effect on Ca2+ transient rise time” value was “no effect”. Also, the “change in the amplitude of Ca2+ transients in the presence of prazosin” value in test [2] (10 μM phenylephrine in the presence of prazosin, n=5 batch of cells) is listed as “did not cause any significant change”. Besides, the “increase in Ca2+ transient amplitude” value in test [2] (10 μM phenylephrine, fluo-4 fluorescence, Days 25-30, n=5 batch of cells) stood at 28±10%.
Turning to `COc1cc2nc(N3CCN(C(=O)c4ccco4)CC3)nc(N)c2cc1OC` [prazosin], the “effect on the amplitude of Ca2+ transients, antagonist by itself” value in test [2] (1 μM prazosin alone) was “no effect”. In addition, in test [2] (1 uM prazosin pre-treated, recorded 10 min after 10 uM PE), the “effects of adrenergic stimulation by 10 uM PE after antagonist pre-treatment” value is given as “abolished”.
For `Cn1cc(C(F)(F)F)nc1-c1ccc(OCC(O)CNCCOc2ccc(O)c(C(N)=O)c2)cc1` (centres unmarked) [CGP20712A], the “effects of adrenergic stimulation after β-adrenergic antagonist pre-treatment” value in test [2] (600 nM GCP pre-treated, recorded 10 min after 10 uM PE (so in the source)) is “abolished”. Besides, the “effect on the amplitude of Ca2+ transients, antagonist by itself” value in test [2] (CGP20712A 300 nM alone) is recorded as “no effect”.
